Data as given in publication PMC9637222, “Autoinducer-2 and bile salts induce c-di-GMP synthesis to repress the T3SS via a T3SS chaperone” (Nature Communications, 2022).
Several values for one entry are separate records, joined by “and”; a condition that tells them apart may be missing. Equal values may be shown once. Read-outs that look alike come from different tables or passages of the source.

Legend:
[1] = biological target: T1, SicA D28A (Salmonella typhimurium, UniProt P69066, D28A); assay type: binding, S. Typhimurium
T1 construct: His6 (N, cleaved yes); made in house; host or cells: E. coli BL21(DE3), pET-28a (pET28a-sicAD28A)
T1 sequence (P69066 whole entry D28A): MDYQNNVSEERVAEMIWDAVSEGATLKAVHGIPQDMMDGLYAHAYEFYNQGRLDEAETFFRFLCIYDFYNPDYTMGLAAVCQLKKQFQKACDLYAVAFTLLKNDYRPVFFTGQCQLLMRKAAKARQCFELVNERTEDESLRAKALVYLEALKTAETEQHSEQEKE

[2] = biological target: T2, IpgC (WP_000055835) (Shigella flexneri, UniProt P0A2U4); assay type: binding, S. flexneri serotype 2a; settings: for Kd: ITC
T2 construct: His6 (N, cleaved yes); made in house; host or cells: E. coli BL21(DE3), pET-28a (pET28a-ipgC)
T2 sequence (P0A2U4 whole entry): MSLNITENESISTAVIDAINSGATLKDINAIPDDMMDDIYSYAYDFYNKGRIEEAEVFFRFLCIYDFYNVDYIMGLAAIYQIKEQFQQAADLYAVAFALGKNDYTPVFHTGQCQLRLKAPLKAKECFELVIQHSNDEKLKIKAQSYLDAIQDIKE

[3] = biological target: T3, BicA (WP_009896148) (Burkholderia thailandensis, UniProt Q2T712); assay type: binding
T3 sequence (Q2T712 1-171): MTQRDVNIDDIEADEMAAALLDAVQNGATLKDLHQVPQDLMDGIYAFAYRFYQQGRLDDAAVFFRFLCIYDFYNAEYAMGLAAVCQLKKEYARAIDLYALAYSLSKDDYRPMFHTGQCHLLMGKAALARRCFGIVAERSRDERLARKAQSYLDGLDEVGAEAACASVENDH

[4] = biological target: PcrH (WP_003113548) (Pseudomonas aeruginosa, UniProt Q9I325); assay type: binding; settings: for Kd: ITC
PcrH (WP_003113548), sequence (Q9I325 1-167): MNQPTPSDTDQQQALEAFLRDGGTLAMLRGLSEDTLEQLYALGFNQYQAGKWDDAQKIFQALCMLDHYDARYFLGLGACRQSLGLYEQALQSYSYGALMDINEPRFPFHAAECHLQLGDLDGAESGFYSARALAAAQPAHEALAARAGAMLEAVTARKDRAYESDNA

[5] = system: SipB-His6 / SicA-HA; assay: Co-IP of SipB-His6 with SicA-HA in presence of c-di-GMP; settings: dose-dependent
[6] = system: InvF-His6 / SicA-HA; assay: Co-IP of InvF-His6 with SicA-HA in presence of nucleotides; settings: nucleotide added to lysate
[7] = biological target: T4, SicA (Salmonella typhimurium, UniProt P69066); assay: ITC: nucleotide (c-di-GMP, c-di-AMP, cGMP) binding to SicA; design: species or system S. Typhimurium
T4 construct: His6 (N, cleaved yes); made in house; host or cells: E. coli BL21(DE3), pET-28a (pET28a-sicA)
T4 sequence (P69066 whole entry): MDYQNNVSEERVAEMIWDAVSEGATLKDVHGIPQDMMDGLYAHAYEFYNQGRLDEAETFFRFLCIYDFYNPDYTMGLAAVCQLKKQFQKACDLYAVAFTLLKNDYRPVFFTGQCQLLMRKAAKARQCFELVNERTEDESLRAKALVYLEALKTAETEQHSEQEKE

[8] = biological target: T5, SicA N70A (Salmonella typhimurium, UniProt P69066, N70A); assay type: binding, S. Typhimurium
T5 construct: His6 (N, cleaved yes); made in house; host or cells: E. coli BL21(DE3), pET-28a (pET28a-sicAN70A)
T5 sequence (P69066 whole entry N70A): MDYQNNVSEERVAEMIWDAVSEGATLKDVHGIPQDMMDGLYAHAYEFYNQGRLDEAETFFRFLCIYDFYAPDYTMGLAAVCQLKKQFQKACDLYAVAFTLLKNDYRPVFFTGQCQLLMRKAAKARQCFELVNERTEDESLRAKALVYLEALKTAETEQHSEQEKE

[9] = system: T6, T3SS ATPase InvC (STM2894); assay: ITC: c-di-GMP binding to T3SS ATPase InvC; settings: T3SS ATPase from S. Typhimurium
T6 construct: His6 (N, cleaved yes); made in house; host or cells: E. coli BL21(DE3) (pET28a-invC)
Description: (§1) Supplementary Fig. 25 Neither the T3SS ATPase InvC (STM2894) from S. Typhimurium nor the T3SS ATPase PA1697 from P. aeruginosa interacts with c-di-GMP
(§2) The binding affinity was evaluated by ITC analysis. ITC data and plots of injected heat for automatic injections of 100 μM c-di-GMP into the sample cell containing 10 μM InvC (a) or PA1697 (b) are shown inthe upper and lower plots, respectively. […]
(§3) the finalanalysis. Results shown are one representative of three experiments with similar results.

[10] = system: SipC-His6 / SicA-HA; assay: Co-IP of SipC-His6 with SicA-HA in presence of c-di-GMP; settings: dose-dependent
[11] = system: T3SS ATPase PA1697; assay: ITC: c-di-GMP binding to T3SS ATPase PA1697; settings: T3SS ATPase from P. aeruginosa
Description: as §1, §2, §3

[12] = biological target: T7, SicA Q34A (Salmonella typhimurium, UniProt P69066, Q34A); assay type: binding, S. Typhimurium
T7 construct: His6 (N, cleaved yes); made in house; host or cells: E. coli BL21(DE3), pET-28a (pET28a-sicAQ34A)
T7 sequence (P69066 whole entry Q34A): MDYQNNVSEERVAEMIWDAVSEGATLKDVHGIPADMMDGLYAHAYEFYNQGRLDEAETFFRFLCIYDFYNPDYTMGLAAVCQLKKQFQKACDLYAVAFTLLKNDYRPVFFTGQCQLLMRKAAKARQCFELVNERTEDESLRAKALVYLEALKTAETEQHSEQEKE

[13] = biological target: T8, InvF (Salmonella typhimurium, UniProt P69343); assay: ITC: c-di-GMP binding to InvF; design: His6 (N, cleaved yes); made in house; host or cells: E. coli BL21(DE3), pET-28a (pET28a-invF); species or system S. Typhimurium
T8 sequence (P69343 1-216): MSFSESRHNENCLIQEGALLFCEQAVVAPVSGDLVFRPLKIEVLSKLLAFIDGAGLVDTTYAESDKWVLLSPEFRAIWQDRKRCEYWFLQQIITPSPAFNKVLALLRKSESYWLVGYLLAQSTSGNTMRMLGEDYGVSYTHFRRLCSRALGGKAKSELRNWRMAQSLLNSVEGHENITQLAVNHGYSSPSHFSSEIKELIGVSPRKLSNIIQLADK

[14] = biological target: T9, VcrH (WP_005464462) (Vibrio parahaemolyticus, UniProt Q87P60); assay type: binding; settings: for Kd: ITC
T9 sequence (Q87P60 1-162): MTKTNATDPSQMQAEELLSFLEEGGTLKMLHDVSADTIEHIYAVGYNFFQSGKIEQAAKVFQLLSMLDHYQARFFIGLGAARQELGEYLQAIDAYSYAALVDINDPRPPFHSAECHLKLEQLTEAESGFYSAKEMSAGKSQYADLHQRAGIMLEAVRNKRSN

[15] = biological target: T10, SicA K27A (Salmonella typhimurium, UniProt P69066, K27A); assay type: binding, S. Typhimurium
T10 construct: His6 (N, cleaved yes); made in house; host or cells: E. coli BL21(DE3), pET-28a (pET28a-sicAK27A)
T10 sequence (P69066 whole entry K27A): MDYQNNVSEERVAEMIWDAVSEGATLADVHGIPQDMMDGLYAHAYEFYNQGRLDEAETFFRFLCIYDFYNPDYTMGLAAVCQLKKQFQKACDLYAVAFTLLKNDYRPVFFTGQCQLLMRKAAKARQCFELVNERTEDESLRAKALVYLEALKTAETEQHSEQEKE

[16] = range given for all 6 chaperones (PcrH, IpgC, SycD, CesD, BicA, VcrH), read-out: Kd
[17] = individual experiments, source data Fig. 5a

For `Nc1nc2c(ncn2C2OC3COP(=O)(O)OC4C(COP(=O)(O)OC3C2O)OC(n2cnc3c(=O)[nH]c(N)nc32)C4O)c(=O)[nH]1` (stereo not drawn) [c-di-GMP, Cyclic di-GMP], the “n, c-di-GMP binding to SicAD28A” value ([1]; ITC binding stoichiometry n, individual replicates, Supplementary Figure 17b) was 1.08 and 1.02 and 0.98, the Kd ([1]; binding to SicA D28A) was 21000 nM and 26000 nM and 20000 nM and the “n, c-di-GMP binding to IpgC” value ([2]; ITC binding stoichiometry n, individual replicates, Supplementary Figure 22b) was 1.23 and 1.10 and 1.13. For the same compound, the Kd ([2]; individual replicates, Supplementary Figure 22b, read-out: Kd, c-di-GMP binding to IpgC) was 200 nM and 250 nM and 220 nM, the Kd [2, 16] was 150 to 220 nM and the Kd [3] was 150 to 220 nM. The “n, c-di-GMP binding to BicA” value [3] was 1.12 and 1.17 and 1.14, the Kd ([3]; read-out: Kd, c-di-GMP binding to BicA) was 190 nM and 200 nM and 240 nM and the “n, c-di-GMP binding to PcrH” value ([4]; ITC binding stoichiometry n, individual replicates, Supplementary Figure 22a) was 1.15 and 1.14 and 1.18. The Kd ([4]; individual replicates, Supplementary Figure 22a, read-out: Kd, c-di-GMP binding to PcrH) was 130 nM and 190 nM, the Kd [4, 16] was 150 to 220 nM and the “Effect on co-IP of SipB-His6 with SicA-HA (in words)” value [5] was “decreased”. The “Effect on co-IP of InvF-His6 with SicA-HA (in words)” value [6] was “impaired”, the Kd ([7]; c-di-GMP : SicA WT, mean ± s.d. of three independent experiments) was 210 ± 90 nM and the Kd [7, 17] was 320 nM and 100 nM. The “n (complex stoichiometry)” value [7, 17] was 1.14 and 1.11 and 1.21, the “n, c-di-GMP binding to SicAN70A” value ([8]; ITC binding stoichiometry n, individual replicates, Supplementary Figure 17e) was 0.95 and 1.03 and the “Increase in Kd, SicA N70A versus SicA” value ([8]; ITC, peer review file) was 140 fold. The Kd ([8]; binding to SicA N70A) was 28000 nM and 31000 nM and 32000 nM, the “Interaction with T3SS ATPase (in words)” value [9] was “no interactions” and the “Effect on co-IP of SipC-His6 with SicA-HA (in words)” value [10] was “decreased”. The “Interaction with T3SS ATPase (in words)” value [11] was “no interactions”, the “n, c-di-GMP binding to SicAQ34A” value ([12]; ITC binding stoichiometry n, individual replicates, Supplementary Figure 17c) was 1.05 and 1.09 and the Kd ([12]; binding to SicA Q34A) was 15000 nM and 12000 nM and 14000 nM. For the same compound, the “Binding to InvF (in words)” value [13] was “does not bind”, the “n, c-di-GMP binding to VcrH” value ([14]; ITC binding stoichiometry n, individual replicates, Supplementary Figure 22f) was 1.12 and 1.10 and the Kd ([14]; individual replicates, Supplementary Figure 22f, read-out: Kd, c-di-GMP binding to VcrH) was 140 nM and 160 nM. For the same compound, the Kd [14, 16] was 150 to 220 nM, the “n, c-di-GMP binding to SicAK27A” value ([15]; ITC binding stoichiometry n, individual replicates, Supplementary Figure 17a) was 1.03 and 0.93 and 0.96 and the Kd ([15]; binding to SicA K27A) was 41000 nM and 33000 nM and 39000 nM.
